Assay results reported in PMC4590290 (Bioorganic chemistry, 2009).

Legend:
[1] = biological target: T1, GlAD (Giardia duodenalis, UniProt Q27657); type: biochemical; conditions: read-out: KI; pH 7.5, 25 °C, 50 mM K+HEPES; covalent; irreversible, two-step inactivation; active site directed
[2] = biological target: T1, GlAD; experiment: steady-state inhibition, glutamate dehydrogenase-coupled assay; type: biochemical

Compound	KI (inactivation) [1] [mM]	Ki [2] [mM]
N[C@@H](CCSN=O)C(=O)O [S-nitroso-L-homocysteine]	40 ± 10	–
N=C(N)NCCCC[C@H](N)C(=O)O [L-homoarginine]	–	48 ± 6
N=C(N)NCCCCN [agmatine]	–	50 ± 10
